Test results taken from the PolyMetriX glass transition set.
± gives the standard deviation of the reports.

Structure (SMILES)	glass transition temperature [°C]
*CC(O)COc1c(C)cc(C(C)(C)c2cc(C)c(OCC(O)COc3ccc(S(=O)(=O)c4ccc(O*)cc4)cc3)c(C)c2)cc1C (repeat unit)	145.00
*CC(COc1ccc(C(C)(C)c2ccc(O*)cc2)cc1)OC(=O)c1ccccc1Cl (repeat unit)	66.00
*CC(*)(C)C(=O)OC(C)CC (repeat unit) [Poly(sec-butyl methacrylate)]	57 ± 2.6
*Oc1ccc(C(=O)c2ccccc2)c(-c2cc(Oc3ccc(-c4ccc(*)cc4)cc3)ccc2C(=O)c2ccccc2)c1 (repeat unit)	174.00
*/C=C/C(C*)OC (repeat unit)	-10.50
*CC(*)OC (repeat unit) [Poly(methyl vinyl ether)]	-26.97 ± 3.8
*c1ccc2oc(-c3ccc(C(c4ccc(-c5nc6cc(C(*)(C(F)(F)F)C(F)(F)F)ccc6o5)cc4)(C(F)(F)F)C(F)(F)F)cc3)nc2c1 (repeat unit)	336.00
*C(=O)c1ccc(Oc2ccc(-c3ccc(Oc4ccc(C(=O)c5ccc6nc(*)ccc6c5)cc4)cc3)cc2)cc1 (repeat unit)	155.00
*CC(*)(C)C(=O)Oc1ccc(C(=O)c2ccccc2)cc1 (repeat unit)	118.00
*CCOc1ccc(/C=C2\CC/C(=C\c3ccc(OCCOP(=O)(O*)OCC)c(OC)c3)C2=O)cc1OC (repeat unit)	80.00
*CCOc1ccc(S(=O)(=O)c2ccc(OCCOP(=O)(O*)Oc3ccc(C)cc3)cc2)cc1 (repeat unit)	46.00
*CC(*)OC(=O)c1ccccc1OC(C)=O (repeat unit)	59.50
*C(=O)c1cc2c(cc1Cl)C(=O)N(c1cc(Cl)cc(N3C(=O)c4cc(*)c(Cl)cc4C3=O)c1)C2=O (repeat unit)	311.00
*Nc1ccc(Cc2ccc(NC(=O)c3cc(NC(=O)c4ccccc4)cc(C(*)=O)c3)cc2)cc1 (repeat unit)	285.00
*CC(*)C(F)(F)C(F)(F)F (repeat unit) [Poly[(pentafluoroethyl)ethylene] ]	41 ± 0.6
*CC(*)(C)C(=O)OCCCCCCCCCCn1c2ccccc2c2cc(/N=N/c3ccc([N+](=O)[O-])cc3[N+](=O)[O-])ccc21 (repeat unit)	60.00
*Oc1ccc2ccc(Oc3ccc(C(=O)Nc4ccc(Oc5ccc(C(c6ccc(Oc7ccc(NC(=O)c8ccc(*)cc8)cc7)cc6)(C(F)(F)F)C(F)(F)F)cc5)cc4)cc3)cc2c1 (repeat unit)	163.00
*C(=O)OC1CC(*)N(C(=O)OCc2ccccc2)C1 (repeat unit)	78.00
*/C(C)=C(/*)CCCCCCC (repeat unit)	160.00
*Oc1ccc(Oc2ccc(Oc3ccc(Oc4ccc(OC(=O)c5cccc(C(*)=O)c5)cc4)cc3)cc2)cc1 (repeat unit)	134.00
*c1cc(N2C(=O)c3ccc(Oc4cc5ccccc5cc4Oc4ccc5c(c4)C(=O)N(*)C5=O)cc3C2=O)cc(C(F)(F)F)c1 (repeat unit)	250.00

Structure (SMILES)	glass transition temperature [°C]
*c1cc(C(c2ccc(OCCN(C)c3ccc(/C=C/C4=CC(=C(/C#N)S(C)(=O)=O)/CC(C)(C)C4)cc3)c(N3C(=O)c4ccc(Oc5ccc6c(c5)C(=O)N(*)C6=O)cc4C3=O)c2)(C(F)(F)F)C(F)(F)F)ccc1OCCN(C)c1ccc(/C=C/C2=CC(=C(/C#N)S(C)(=O)=O)/CC(C)(C)C2)cc1 (repeat unit)	225.00
*O[Si](*)(CCC)c1ccccc1 (repeat unit)	40.60
*CCCCCCCCCCOc1ccc(/C=C2\CC/C(=C\c3ccc(OCCCCCCCCCCOP(=O)(O*)OC)c(OC)c3)C2=O)cc1OC (repeat unit)	48.00
*NC(CCC(=O)Nc1ccc(N(c2ccccc2)c2ccccc2)cc1)C(*)=O (repeat unit)	132.00
*C/C=C/C(C)S(*)(=O)=O (repeat unit)	71.00
*CCCCCCCCCCCNC(=O)CCCCCCCCCCC(=O)N* (repeat unit)	39.00
*c1ccc(C(=O)c2ccc(C(=O)c3ccc(Oc4ccc(-c5nn(*)c(=O)c6ccccc56)c(F)c4)cc3)cc2)cc1 (repeat unit)	287.00
*CCOC(=O)Nc1ccc(Cc2ccc(NC(=O)OCCOc3ccc(O*)cc3)cc2)cc1 (repeat unit)	98.00
*CNC(=O)OCc1cocc1COC(=O)NCc1ccc(C(C)(C)c2ccc(*)o2)o1 (repeat unit)	25.00
*CC(*)C(=O)OCCCCCCCCC (repeat unit) [Poly(n-nonyl acrylate) ]	-60 ± 17
*c1cccc(NC(=O)CCCCC(=O)Nc2cccc(S(*)(=O)=O)c2)c1 (repeat unit)	140.00
*Oc1cccc(C(F)(F)C(F)(F)C(F)(F)c2cccc(OC(*)=O)c2)c1 (repeat unit)	46.00
*c1cccc(P(=O)(c2cccc(-n3c(=O)c4c(-c5cc(C(F)(F)F)cc(C(F)(F)F)c5)c5c(=O)n(*)c(=O)c5c(-c5cc(C(F)(F)F)cc(C(F)(F)F)c5)c4c3=O)c2)c2cc(C(F)(F)F)cc(C(F)(F)F)c2)c1 (repeat unit)	293.00
*NC(=O)NCCCCCCNC(=O)Nc1cccc(*)n1 (repeat unit)	170.00
*C(CC(C)C)C(=O)Nc1ccc(Oc2ccc(NC(=O)Nc3ccc(Cc4ccc(NC(=O)Nc5ccc(Oc6ccc(NC(=O)C(CC(C)C)n7c(=O)c8cc9c(=O)n(*)c(=O)c9cc8c7=O)cc6)cc5)cc4)cc3)cc2)cc1 (repeat unit)	181.40
*/C=C/C(C)C(*)C(=O)OCCCCCCN(C)c1ccc(N(C)C)cc1 (repeat unit)	2.00
*CC(*)(C)C(=O)OCC (repeat unit) [Poly(1-(Diethylamino)ethyl methacrylate)]	20 ± 27
*CCCCCC(*)CCCCCC (repeat unit)	-76.00
*c1ccc2c(c1)C(=O)N(C1CCC(CC3CCC(N4C(=O)c5ccc(C(*)(C(F)(F)F)C(F)(F)F)cc5C4=O)C(C)C3)CC1C)C2=O (repeat unit)	225.00
*NC(CCC(=O)OCCCC)C(*)=O (repeat unit)	-15.00
*/C=C/c1ccc(/C=C/c2ccc3c(c2)Sc2cc(*)ccc2N3c2ccc(OCCCCCCCCCCCC)cc2)s1 (repeat unit)	155.00

Structure (SMILES)	glass transition temperature [°C]
*C(=O)Nc1ccc(Oc2ccc(-c3ccc(Oc4ccc(NC(=O)c5ccc6c(c5)C(=O)N(c5ccc(Oc7ccccc7-c7ccccc7Oc7ccc(N8C(=O)c9ccc(*)cc9C8=O)cc7)cc5)C6=O)cc4)cc3)cc2)cc1 (repeat unit)	254.00
*Oc1ccc(C2(c3ccc(OC(*)=O)cc3)CCCCCC2)cc1 (repeat unit)	155.00
*c1cc(C(c2ccc(OCCN(c3ccccc3)c3ccc(/C=C/C4=CC(=C(/C#N)S(C)(=O)=O)/CC(C)(C)C4)cc3)c(N3C(=O)c4ccc(Oc5ccc6c(c5)C(=O)N(*)C6=O)cc4C3=O)c2)(C(F)(F)F)C(F)(F)F)ccc1OCCN(c1ccccc1)c1ccc(/C=C/C2=CC(=C(/C#N)S(C)(=O)=O)/CC(C)(C)C2)cc1 (repeat unit)	234.00
*CCOC(=O)c1ccc(-c2ccc(C(=O)O*)cc2C)c(C)c1 (repeat unit)	73.00
*c1cccc(NC(=O)CCCCCCCCC(=O)Nc2cccc(S(*)(=O)=O)c2)c1 (repeat unit)	112.00
*c1ccc(Oc2ccc(Oc3ccc(N4C(=O)c5ccc(Oc6ccc(C7(c8ccc(Oc9ccc%10c(c9)C(=O)N(*)C%10=O)cc8)CCC(C(C)(C)C)CC7)cc6)cc5C4=O)cc3)c(C(C)(C)C)c2)cc1 (repeat unit)	233.00
*c1ccc(-c2nc3cc(C(=O)c4ccc5nc(-c6ccccc6)c(-c6ccc(N7C(=O)C8OC9C(=O)N(*)C(=O)C9C8C7=O)cc6)nc5c4)ccc3nc2-c2ccccc2)cc1 (repeat unit)	255.00
*CC(*)(C)C(=O)Oc1ccc(-c2nnc(-c3ccc(C(C)(C)C)cc3)o2)cc1 (repeat unit)	156.00
*c1cccc(Oc2ccc(P(=O)(c3ccccc3)c3ccccc3)c(Oc3cccc(-n4c(=O)c5cc6c(=O)n(*)c(=O)c6cc5c4=O)c3)c2)c1 (repeat unit)	251.00
*c1cc(C(=O)O)cc(N2C(=O)CC(C3CC4C(=O)N(*)C(=O)C4c4ccccc43)C2=O)c1 (repeat unit)	360.00
*Oc1ccc2ccc(Oc3ccc(C(=O)Nc4ccc(C(C)(C)c5ccc(C(C)(C)c6ccc(NC(=O)c7ccc(*)cc7)cc6)cc5)cc4)cc3)cc2c1 (repeat unit)	155.00
*/C(=C/c1cc(OCCCCCCCC)c(/C=C(\c2ccccc2)c2ccc3c(c2)Sc2ccc(*)cc2S3)cc1OCCCCCCCC)c1ccccc1 (repeat unit)	93.00
*CC(O)COc1ccc(C(C)(C)c2ccc(OCC(O)COc3cccc(C(=O)Nc4cccc(O*)c4)c3)cc2)cc1 (repeat unit)	117.00
*c1ccc2c(c1)C(=O)N(c1cccc(C(F)(F)C(F)(F)C(F)(F)c3cccc(N4C(=O)c5ccc(C(F)(F)C(F)(F)C(*)(F)F)cc5C4=O)c3)c1)C2=O (repeat unit)	157.00
*c1cccc(C(=O)Nc2ccc(Oc3ccc(C(C)(C)c4ccc(Oc5ccc(NC(=O)c6cccc(N7C(=O)c8ccc(-c9cccc%10c9C(=O)N(*)C%10=O)cc8C7=O)c6)cc5)cc4)cc3)cc2)c1 (repeat unit)	261.00
*CC(c1ccccc1)C1C(=O)N(CCN(CC)c2ccc(/N=N/c3ccc([N+](=O)[O-])cc3)cc2)C(=O)C1* (repeat unit)	172.00
*CCC(C)C(*)C (repeat unit)	-26.00
*c1ccc2c(c1)C(=O)N(c1ccc(C3(c4ccc(N5C(=O)c6ccc(C(*)(C(F)(F)F)C(F)(F)F)cc6C5=O)c(C(C)C)c4)c4ccccc4-c4ccccc43)cc1C(C)C)C2=O (repeat unit)	299.00
*CC(*)(C)C(=O)NC(=O)OCCOc1ccc(S(=O)(=O)c2ccc(OCCO)cc2)cc1 (repeat unit)	131.00
